23 molecules from US9434714B2, “Pyrimidine imidazole amines as modulators of kinase activity” (Merck Patent GmbH, priority 2014, dated 2016) can be followed below.

For assay [1], the target named is T1, His-AKT (Full Length) (Homo sapiens, UniProt P31749).
T1 construct: His-AKT (Full Length); His; purchased Invitrogen P2999
Nature of the assay: AKT enzyme assay. It is filed as biochemical. As to conditions: 160 uM ATP, 90 min at 25 C, off-chip mobility shift (Caliper). As to the method:
A TTP Mosquito liquid handling instrument was used to place 125 nl of the appropriate concentration of inhibitor in 100% DMSO (for a dose response curve calculation) into each well of a 384-well plate. To this reaction components were added to a final volume of 12.5 μl: • 0.1 ng/μ1 His-AKT (Full Length), (Invitrogen, Part # P2999, Lot #641228C). • 160 uM ATP (Fluka, 02055) • 1 mM DTT (Sigma, D0632) • 1 mM MgCl2 (Sigma, M1028) • 1 μM substrate peptide (sequence FITC-AHA-GRPRTSSFAEG-NH2), synthesized by Tufts Peptide Synthesis service. • 100 mM HEPES pH 7.5 (Calbiochem, 391338) • 0.015% Brij-35 (Sigma, B4184)
The reaction was incubated for 90 min at 25 C, and then stopped by the addition of 70 μl of Stop buffer (100 mM HEPES pH 7.5, 0.015% Brij-35, 10 mM EDTA (Sigma, E7889)).
The plate was read on a Caliper LC 3000 in an Off-Chip mobility shift assay format, using the following parameters for a 12-sipper chip: screening pressure—2.3 psi, upstream voltage—500, and downstream voltage—3000. These conditions cause unphosphorylated substrate and phosphorylated product peptide to resolve as separate peaks allowing direct measurement of percentage of conversion of substrate to product. The percent conversion was plotted against concentration of inhibitor to produce a sigmoidal dose response curve, from which an IC50 was calculated.

Assay [2] has as its target T2, P70S6K (T412E mutant) (Homo sapiens, UniProt P23443, T412E).
T2 construct: purchased Millipore
The assay is described as follows: P70S6K enzyme assay. It is filed as biochemical. Particulars: 24 μM ATP, 90 min at 25° C., mobility shift (Caliper). As to the method: P70S6K inhibitor compounds were diluted and plated in 96 well plates. A reaction mixture including the following components was then added to the compound plate to initiate the enzyme reaction; P70S6K (3 nM, T412E mutant, Millipore) was mixed with 24 μM ATP in an assay buffer containing 100 mM Hepes (pH 7.5), 5 mM MgCl2, 1 mM DTT, 0.015% Brij and 1 μM of the substrate peptide FITC-AHA-AKRRRLSSLRA-OH (derived from the S6 ribosomal protein sequence, FITC=fluorescein isothiocyanate, AHA=6-aminohexanoic acid). The reaction was incubated for 90 min at 25° C., before the addition of 10 mM EDTA to stop the reaction. The proportion of substrate and product (phosphorylated) peptide was analysed on a Caliper Life Sciences Lab Chip 3000, using a pressure of −1.4 psi, and upstream and downstream voltages of −3000 and −700 respectively. Product peaks were resolved before substrate peaks on the resulting chromatograms.

Bounds are passed on as bounds.

T1 sequence (P31749 whole entry): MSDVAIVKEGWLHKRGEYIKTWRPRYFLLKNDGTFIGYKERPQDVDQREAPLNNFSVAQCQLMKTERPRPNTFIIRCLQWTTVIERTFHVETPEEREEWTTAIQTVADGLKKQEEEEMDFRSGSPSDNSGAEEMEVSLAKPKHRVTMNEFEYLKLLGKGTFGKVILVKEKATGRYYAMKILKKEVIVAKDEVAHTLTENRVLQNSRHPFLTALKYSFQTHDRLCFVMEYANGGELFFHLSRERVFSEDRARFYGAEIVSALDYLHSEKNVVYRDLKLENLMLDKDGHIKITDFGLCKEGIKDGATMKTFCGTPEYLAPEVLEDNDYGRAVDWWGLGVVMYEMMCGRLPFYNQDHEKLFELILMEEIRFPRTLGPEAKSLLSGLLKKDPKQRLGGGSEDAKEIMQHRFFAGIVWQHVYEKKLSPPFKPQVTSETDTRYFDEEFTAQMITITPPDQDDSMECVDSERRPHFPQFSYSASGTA
T2 sequence (P23443 whole entry T412E): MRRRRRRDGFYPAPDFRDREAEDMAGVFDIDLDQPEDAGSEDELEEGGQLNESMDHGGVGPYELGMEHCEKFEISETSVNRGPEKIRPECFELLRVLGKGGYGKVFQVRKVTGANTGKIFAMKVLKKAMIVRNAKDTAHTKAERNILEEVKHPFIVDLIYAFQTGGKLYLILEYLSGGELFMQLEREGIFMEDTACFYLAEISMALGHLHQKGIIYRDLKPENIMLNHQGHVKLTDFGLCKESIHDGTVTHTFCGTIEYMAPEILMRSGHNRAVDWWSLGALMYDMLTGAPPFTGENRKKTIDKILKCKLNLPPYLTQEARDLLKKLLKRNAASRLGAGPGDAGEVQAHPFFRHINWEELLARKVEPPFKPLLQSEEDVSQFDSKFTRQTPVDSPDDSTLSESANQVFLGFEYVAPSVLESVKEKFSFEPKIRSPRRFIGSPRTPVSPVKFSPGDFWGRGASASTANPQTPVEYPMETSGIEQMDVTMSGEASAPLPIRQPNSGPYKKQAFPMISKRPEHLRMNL

The term IC50 denotes the concentration at which inhibition is half-maximal. `Cc1cc(-c2cn(CCN(C)C)c(C3CCN(c4ncnc(N)c4Br)CC3)n2)ccc1F` [Compound 21]: the IC50 in assay [1] and in assay [2] was less than 3 nM each time.
Consider `CC(C)c1cc(-c2cn(CCN3CCC3)c(C3CCN(c4ncnc(N)c4C=O)CC3)n2)ccn1` [Compound 15, 4-Amino-6-{4-[1-(2-azetidin-1-yl-ethyl)-4-(2-isopropyl-pyridin-4-yl)-1H-imidazol-2-yl]-piperidin-1-yl}-pyrimidine-5-carbaldehyde], for which the figures for the IC50 in assay [1] and in assay [2] were 3 to 15 nM and less than 3 nM, respectively.
In the case of `CCOc1c(N)ncnc1N1CCC(c2nc(-c3ccnc(C(F)(F)F)c3)cn2CCN(C)C)CC1` [Compound 26], the IC50 in assay [1] and in assay [2] was 3 to 15 nM each time.
Turning to `CN(C)CCn1cc(-c2ccnc(C(F)(F)F)c2)nc1C1CCN(c2ncnc(N)c2Cl)CC1` [Compound 24], the IC50 in assay [1] is 3 to 15 nM; in assay [2], less than 3 nM.
In the case of `Cc1cc(-c2cn(CCN3CCC3)c(C3CCN(c4ncnc(N)c4Cl)CC3)n2)ccc1F` [Compound 2, 6-{4-[1-(2-Azetidin-1-yl-ethyl)-4-(4-fluoro-3-methyl-phenyl)-1H-imidazol-2-yl]-piperidin-1-yl}-5-chloro-pyrimidin-4-ylamine], the IC50 in assay [1] and in assay [2] was less than 3 nM each time.
On to `Cc1cc(-c2cn(CCNCCCCl)c(C3CCN(c4ncnc(N)c4C(C)C)CC3)n2)ccc1F` [Compound 32, 6-{4-[1-[2-(3-Chloro-propylamino)-ethyl]-4-(4-fluoro-3-methyl-phenyl)-1H-imidazol-2-yl]-piperidin-1-yl}-5-isopropyl-pyrimidin-4-ylamine], for which the IC50 is 3 to 15 nM in assay [1] and less than 3 nM in assay [2].
For `CC(C)Oc1c(N)ncnc1N1CCC(c2nc(-c3ccnc(C(F)(F)F)c3)cn2CCN(C)C)CC1` [Compound 28] the same measures were 3 to 15 nM and 3 to 15 nM.
The like results for `Cc1cc(-c2cn(CCN3CCC3)c(C3CCN(c4ncnc(N)c4C(C)C)CC3)n2)ccc1F` [Compound 4, 6-{4-[1-(2-Azetidin-1-yl-ethyl)-4-(4-fluoro-3-methyl-phenyl)-1H-imidazol-2-yl]-piperidin-1-yl}-5-isopropyl-pyrimidin-4-ylamine] were, in that order, 3 to 15 nM and 3 to 15 nM.
Consider `Cc1cc(-c2cn(CCN3CCC3)c(C3CCN(c4ncnc(N)c4-c4ccncc4)CC3)n2)ccc1F` [Compound 8, 6-{4-[1-(2-Azetidin-1-yl-ethyl)-4-(4-fluoro-3-methyl-phenyl)-1H-imidazol-2-yl]-piperidin-1-yl}-5-pyridin-4-yl-pyrimidin-4-ylamine], for which the IC50 in assay [1] and in assay [2] was 3 to 15 nM each time.
For `CC(C)Oc1c(N)ncnc1N1CCC(c2nc(-c3ccnc(C(C)C)c3)cn2CCN2CCC2)CC1` [Compound 12, 6-{4-[1-(2-Azetidin-1-yl-ethyl)-4-(2-isopropyl-pyridin-4-yl)-1H-imidazol-2-yl]-piperidin-1-yl}-5-isopropoxy-pyrimidin-4-ylamine], the IC50 in assay [1] and in assay [2] was 3 to 15 nM in each case.
Consider `Cc1cc(-c2cn(CCN3CCC3)c(C3CCN(c4ncnc(N)c4C4CC4)CC3)n2)ccc1F` [Compound 16, 6-{4-[1-(2-Azetidin-1-yl-ethyl)-4-(4-fluoro-3-methyl-phenyl)-1H-imidazol-2-yl]-piperidin-1-yl}-5-cyclopropyl-pyrimidin-4-ylamine], for which the IC50 in assay [1] and in assay [2] was less than 3 nM throughout.
As for `CC(C)c1c(N)ncnc1N1CCC(c2nc(-c3ccnc(C(F)(F)F)c3)cn2CCN2CCC2)CC1` [Compound 5, 6-{4-[1-(2-Azetidin-1-yl-ethyl)-4-(2-trifluoromethyl-pyridin-4-yl)-1H-imidazol-2-yl]-piperidin-1-yl}-5-isopropyl-pyrimidin-4-ylamine], the concentration for half-maximal inhibition (IC50) in assay [1] was 3 to 15 nM; in assay [2] it was less than 3 nM.
`CC(C)c1cc(-c2cn(CCN3CCC3)c(C3CCN(c4ncnc(N)c4C(C)C)CC3)n2)ccn1` [Compound 3, 6-{4-[1-(2-Azetidin-1-yl-ethyl)-4-(2-isopropyl-pyridin-4-yl)-1H-imidazol-2-yl]-piperidin-1-yl}-5-isopropyl-pyrimidin-4-ylamine]: the half-inhibitory concentration (IC50) in assay [1] and in assay [2] was 3 to 15 nM each time.
`CC(C)c1cc(-c2cn(CCN3CCC3)c(C3CCN(c4ncnc(N)c4OCC(F)(F)F)CC3)n2)ccn1` [Compound 14, 6-{4-[1-(2-Azetidin-1-yl-ethyl)-4-(2-isopropyl-pyridin-4-yl)-1H-imidazol-2-yl}-piperidin-1-yl]-5-(2,2,2-trifluoro-ethoxy)-Pyrimidin-4-ylamine]: the IC50 in assay [1] and in assay [2] was 3 to 15 nM each time.
As for `CC(C)c1cc(-c2cn(CCN3CCC3)c(C3CCN(c4ncnc(N)c4-c4ccncc4)CC3)n2)ccn1` [Compound 13, 6-{4-[1-(2-Azetidin-1-yl-ethyl)-4-(2-isopropyl-pyridin-4-yl)-1H-imidazol-2-yl}-piperidin-1-yl]-5-Pyridin-4-yl-pyrimidin-4-ylamine], the half-inhibitory concentration (IC50) in assay [1] was greater than 15 nM; in assay [2] it was 3 to 15 nM.
As for `CCOc1c(N)ncnc1N1CCC(c2nc(-c3ccnc(C(C)C)c3)cn2CCN2CCC2)CC1` [Compound 10, 6-{4-[1-(2-Azetidin-1-yl-ethyl)-4-(2-isopropyl-pyridin-4-yl)-1H-imidazol-2-yl]-piperidin-1-yl}-5-ethoxy-pyrimidin-4-ylamine], the IC50 in assay [1] and in assay [2] was 3 to 15 nM in each case.
Take `CCc1c(N)ncnc1N1CCC(c2nc(-c3ccnc(C(F)(F)F)c3)cn2CCN(C)C)CC1` [Compound 27]: the IC50 in assay [1] is greater than 15 nM; in assay [2] it was 3 to 15 nM.
For `CC(C)c1cc(-c2cn(CCN3CCC3)c(C3CCN(c4ncnc(N)c4-c4ccccc4)CC3)n2)ccn1` [Compound 18, 6-{4-[1-(2-Azetidin-1-yl-ethyl)-4-(2-isopropyl-pyridin-4-yl)-1H-imidazol-2-yl]-piperidin-1-yl}-5-phenyl-pyrimidin-4-ylamine], the IC50 is greater than 15 nM in assay [1] and less than 3 nM in assay [2].
On to `Cc1cc(-c2cn(CCN(C)C)c(C3CCN(c4ncnc(N)c4Cl)CC3)n2)ccc1F` [Compound 22], for which the IC50 in assay [1] and in assay [2] was less than 3 nM each time.
In the case of `CN(C)CCn1cc(-c2ccc(F)c(C(F)(F)F)c2)nc1C1CCN(c2ncnc(N)c2Cl)CC1` [Compound 23], the half-maximal inhibitory concentration (IC50) in assay [1] was 3 to 15 nM; in assay [2] it was less than 3 nM.
Take `CC(C)c1cc(-c2cn(CCN3CCC3)c(C3CCN(c4ncnc(N)c4C4CCC4)CC3)n2)ccn1` [Compound 11, 6-{4-[1-(2-Azetidin-1-yl-ethyl)-4-(2-isopropyl-pyridin-4-yl)-1H-imidazol-2-yl]-piperidin-1-yl}-5-cyclobutyl-pyrimidin-4-ylamine]: the IC50 was less than 3 nM in assay [1] and 3 to 15 nM in assay [2].
For `Cc1cc(-c2cn(CCN3CCC3)c(C3CCN(c4ncnc(N)c4-c4ccn[nH]4)CC3)n2)ccc1F` [Compound 7, 6-{4-[1-(2-Azetidin-1-yl-ethyl)-4-(4-fluoro-3-methyl-phenyl)-1H-imidazol-2-yl]-piperidin-1-yl}-5-(2H-pyrazol-3-yl)-pyrimidin-4-ylamine], the IC50 in assay [1] and in assay [2] was 3 to 15 nM throughout.
As for `CN(C)CCn1cc(-c2ccnc(C(F)(F)F)c2)nc1C1CCN(c2ncnc(N)c2C(N)=O)CC1` [Compound 30], the IC50 in assay [1] and in assay [2] was greater than 15 nM each time.
